Holding throughout (format): cell-based
In one test the target is T1, human Nav1.7 (hSCN9A) (Homo sapiens, UniProt Q15858).
T1 construct: expressed in transfected cells; host or cells: CHO
As to the kind of experiment: Electrophysiology assay for Navs, whole cell patch clamp, Nav1.7. Conditions: Kinact, dissociation constant for the inactivated state, read-out: activities (Ki) against Nav1.7. The protocol: (§1) Electrophysiology Assay for Navs
(§2) Whole cell patch clamp recording is used to assess the efficacy or selectivity of Na channel blocker on human Nav1.3 (hSCN3A) expressing HEK293 cells or human Nav1.7 (hSCN9A) expressing CHO cells. Human Nav1.3 expressing HEK293 cells are grown in growth media which comprised: DMEM, 10% heat-inactivated FBS (Hyclone Laboratories Inc), 100 microgram/mL Penicillin/100 U/mL Streptomycin, 150 microgram/mL Zeocin, 3 microgram/mL Geneticin. Human Nav1.7 expressing CHO cells are grown in growth media which comprised: HAM/F-12, 9% heat-inactivated FBS (Hyclone Laboratories Inc), 100 microgram/mL Penicillin/100 U/mL Streptomycin, 100 microgram/mL Hygromycin.
(§3) Na channel expressing cells are dissociated by 0.05% Trypsine-EDTA, and then seeded on cover glass for 24-48 hr. […]
(§4) The normalized steady-state inactivation curve is constructed using 2 sec (for vehicle) or 60 sec (for drugs) conditioning pulse to different potentials followed immediately by the test pulse to −10 mV. […] The affinity of drugs to resting state of Na channels (Kresting or Kr) is assessed by 30 msec test pulse from a negative holding potential of −120 or −130 mV, where virtually all channels are in the resting state. Kr value is calculated by a conventional 1:1 binding model: Kresting(Kr)={[drug]Imax,drug/(Imax,control−Imax,drug)} […]

In a further test the target is T2, human Nav1.3 (hSCN3A) (Homo sapiens, UniProt Q9NY46).
T2 construct: expressed in transfected cells; host or cells: HEK293
As to the kind of experiment: Electrophysiology assay for Navs, whole cell patch clamp, Nav1.3. Conditions: Kinact, dissociation constant for the inactivated state, read-out: activities (Ki) against Nav1.3. The procedure:
as §1, §2, §3, §4
For orientation: The patch-clamp technique gives a direct electrical read-out from membranes.

For the next test, the target named is T3, human Nav1.3 channels (Homo sapiens, UniProt Q9NY46).
T3 construct: expressed in transfected cells; host or cells: HEK293
As to the kind of experiment: FRET assay, human Nav1.3 (EFS on FDSS). Conditions: HEK293 cells expressing human Nav1.3, read-out: IC50 against Nav1.3. Put shortly:
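HEK293 cells expressing the channel, loaded with 10 microM CC2-DMPE then 15 microM DiSBAC2(3) plus 0.555 mM VABSC-1 in pH 7.4 HEPES buffer at room temperature. Membrane potential changes evoked by electrical field stimulation after compound addition; IC50 from 440 nm-normalized FRET ratios.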

A further test has as its target T4, human Nav1.5 channels (Homo sapiens, UniProt Q14524).
T4 construct: expressed in transfected cells; host or cells: HEK293
Briefly: FRET assay, human Nav1.5 (EFS on FDSS). Conditions: HEK293 cells expressing human Nav1.5, read-out: activities against Nav1.5. The procedure: The inhibitory activities of compounds against voltage gated sodium channels are determined by methodology well known in the art.
The ability of the aryl substituted carboxamide derivatives of the formula (I) to inhibit the NaV1.3, Nav1.7 and Nav1.5 channels is measured by Fluorescence Resonance Energy Transfer (FRET) assay and electrophysiology assay described below.
This screen is used to determine the effects of compounds on human Nav1.3, human Nav1.7, and human Nav1.5 channels, utilising electrical field stimulation (EFS) system in 96-well plate format on FDSS (Hamamatsu Photonics) platform. The change of membrane potential is monitored with FRET dye pair, oxonol (DiSBAC2(3)) and coumarin (CC2-DMPE).
Each HEK293 cells expressing human Nav1.3 channels and HEK293 cells expressing human Nav1.5 channels are grown in T225 flasks, in a 5% CO2 humidified incubator to about 80% confluence. Media composition consists of Dulbecco's Modified Eagle Medium (high glucose), 10% FCS, 100 units/mL Penicillin, 100 microgram/mL Streptomycin and 500 microgram/mL Geneticine. […]
The data are analyzed and reported as normalized ratios of intensities measured at […]. […]
This analysis is performed using a computerized specific program designed for FDSS generated data. Fluorescence ratio values are plotted using XLfit to determine an IC50 value for each compound.

Molecules are shown by their SMILES.

T4 sequence (Q14524 whole entry): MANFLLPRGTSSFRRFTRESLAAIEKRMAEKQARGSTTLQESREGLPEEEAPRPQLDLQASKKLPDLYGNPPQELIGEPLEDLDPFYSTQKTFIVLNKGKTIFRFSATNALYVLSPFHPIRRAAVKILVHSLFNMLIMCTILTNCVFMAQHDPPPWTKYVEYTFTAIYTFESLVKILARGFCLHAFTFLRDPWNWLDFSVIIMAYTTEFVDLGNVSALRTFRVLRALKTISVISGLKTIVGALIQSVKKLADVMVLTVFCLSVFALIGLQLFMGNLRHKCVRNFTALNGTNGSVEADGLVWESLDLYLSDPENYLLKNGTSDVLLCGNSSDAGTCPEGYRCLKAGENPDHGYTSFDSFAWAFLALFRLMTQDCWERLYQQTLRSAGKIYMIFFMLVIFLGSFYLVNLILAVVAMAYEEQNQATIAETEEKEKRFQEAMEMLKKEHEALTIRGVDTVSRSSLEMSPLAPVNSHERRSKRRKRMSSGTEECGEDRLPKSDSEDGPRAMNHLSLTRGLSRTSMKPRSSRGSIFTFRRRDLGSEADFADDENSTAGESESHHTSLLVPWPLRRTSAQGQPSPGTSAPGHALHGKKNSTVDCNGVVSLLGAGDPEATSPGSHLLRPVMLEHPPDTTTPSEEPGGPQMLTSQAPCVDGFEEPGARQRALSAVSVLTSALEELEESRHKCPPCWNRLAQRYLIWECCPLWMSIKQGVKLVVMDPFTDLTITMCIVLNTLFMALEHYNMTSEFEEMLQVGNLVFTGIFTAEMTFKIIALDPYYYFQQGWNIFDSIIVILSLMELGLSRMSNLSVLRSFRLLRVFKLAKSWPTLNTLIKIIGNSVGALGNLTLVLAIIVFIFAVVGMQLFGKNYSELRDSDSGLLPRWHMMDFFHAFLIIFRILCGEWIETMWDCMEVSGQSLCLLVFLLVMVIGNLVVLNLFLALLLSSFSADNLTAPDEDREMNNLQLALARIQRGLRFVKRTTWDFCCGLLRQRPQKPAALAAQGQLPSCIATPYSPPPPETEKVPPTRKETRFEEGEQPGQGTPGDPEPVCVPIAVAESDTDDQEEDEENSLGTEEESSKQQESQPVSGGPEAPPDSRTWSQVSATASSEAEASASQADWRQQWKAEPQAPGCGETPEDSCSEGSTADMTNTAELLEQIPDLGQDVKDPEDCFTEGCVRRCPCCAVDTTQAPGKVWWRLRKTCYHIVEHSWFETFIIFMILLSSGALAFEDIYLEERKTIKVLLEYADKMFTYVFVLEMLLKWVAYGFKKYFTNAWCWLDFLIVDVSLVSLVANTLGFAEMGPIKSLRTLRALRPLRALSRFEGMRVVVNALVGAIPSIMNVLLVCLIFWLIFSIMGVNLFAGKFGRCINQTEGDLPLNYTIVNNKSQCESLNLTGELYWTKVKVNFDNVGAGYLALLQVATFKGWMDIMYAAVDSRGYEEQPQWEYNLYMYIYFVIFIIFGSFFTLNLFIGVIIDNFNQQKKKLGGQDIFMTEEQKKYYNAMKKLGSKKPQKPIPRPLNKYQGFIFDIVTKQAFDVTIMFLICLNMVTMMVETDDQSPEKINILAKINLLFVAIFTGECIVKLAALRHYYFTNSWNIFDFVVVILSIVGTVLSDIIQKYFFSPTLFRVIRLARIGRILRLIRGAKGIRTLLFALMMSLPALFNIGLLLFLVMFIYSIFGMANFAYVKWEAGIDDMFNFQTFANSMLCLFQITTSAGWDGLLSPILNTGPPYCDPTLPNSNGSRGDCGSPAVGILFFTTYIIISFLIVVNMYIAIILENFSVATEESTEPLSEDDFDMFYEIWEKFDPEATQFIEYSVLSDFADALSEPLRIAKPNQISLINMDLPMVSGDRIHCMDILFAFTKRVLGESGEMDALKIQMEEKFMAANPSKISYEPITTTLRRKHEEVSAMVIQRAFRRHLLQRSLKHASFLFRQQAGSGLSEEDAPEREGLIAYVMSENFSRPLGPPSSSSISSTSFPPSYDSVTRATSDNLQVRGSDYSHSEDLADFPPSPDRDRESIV
T1 sequence (Q15858 whole entry): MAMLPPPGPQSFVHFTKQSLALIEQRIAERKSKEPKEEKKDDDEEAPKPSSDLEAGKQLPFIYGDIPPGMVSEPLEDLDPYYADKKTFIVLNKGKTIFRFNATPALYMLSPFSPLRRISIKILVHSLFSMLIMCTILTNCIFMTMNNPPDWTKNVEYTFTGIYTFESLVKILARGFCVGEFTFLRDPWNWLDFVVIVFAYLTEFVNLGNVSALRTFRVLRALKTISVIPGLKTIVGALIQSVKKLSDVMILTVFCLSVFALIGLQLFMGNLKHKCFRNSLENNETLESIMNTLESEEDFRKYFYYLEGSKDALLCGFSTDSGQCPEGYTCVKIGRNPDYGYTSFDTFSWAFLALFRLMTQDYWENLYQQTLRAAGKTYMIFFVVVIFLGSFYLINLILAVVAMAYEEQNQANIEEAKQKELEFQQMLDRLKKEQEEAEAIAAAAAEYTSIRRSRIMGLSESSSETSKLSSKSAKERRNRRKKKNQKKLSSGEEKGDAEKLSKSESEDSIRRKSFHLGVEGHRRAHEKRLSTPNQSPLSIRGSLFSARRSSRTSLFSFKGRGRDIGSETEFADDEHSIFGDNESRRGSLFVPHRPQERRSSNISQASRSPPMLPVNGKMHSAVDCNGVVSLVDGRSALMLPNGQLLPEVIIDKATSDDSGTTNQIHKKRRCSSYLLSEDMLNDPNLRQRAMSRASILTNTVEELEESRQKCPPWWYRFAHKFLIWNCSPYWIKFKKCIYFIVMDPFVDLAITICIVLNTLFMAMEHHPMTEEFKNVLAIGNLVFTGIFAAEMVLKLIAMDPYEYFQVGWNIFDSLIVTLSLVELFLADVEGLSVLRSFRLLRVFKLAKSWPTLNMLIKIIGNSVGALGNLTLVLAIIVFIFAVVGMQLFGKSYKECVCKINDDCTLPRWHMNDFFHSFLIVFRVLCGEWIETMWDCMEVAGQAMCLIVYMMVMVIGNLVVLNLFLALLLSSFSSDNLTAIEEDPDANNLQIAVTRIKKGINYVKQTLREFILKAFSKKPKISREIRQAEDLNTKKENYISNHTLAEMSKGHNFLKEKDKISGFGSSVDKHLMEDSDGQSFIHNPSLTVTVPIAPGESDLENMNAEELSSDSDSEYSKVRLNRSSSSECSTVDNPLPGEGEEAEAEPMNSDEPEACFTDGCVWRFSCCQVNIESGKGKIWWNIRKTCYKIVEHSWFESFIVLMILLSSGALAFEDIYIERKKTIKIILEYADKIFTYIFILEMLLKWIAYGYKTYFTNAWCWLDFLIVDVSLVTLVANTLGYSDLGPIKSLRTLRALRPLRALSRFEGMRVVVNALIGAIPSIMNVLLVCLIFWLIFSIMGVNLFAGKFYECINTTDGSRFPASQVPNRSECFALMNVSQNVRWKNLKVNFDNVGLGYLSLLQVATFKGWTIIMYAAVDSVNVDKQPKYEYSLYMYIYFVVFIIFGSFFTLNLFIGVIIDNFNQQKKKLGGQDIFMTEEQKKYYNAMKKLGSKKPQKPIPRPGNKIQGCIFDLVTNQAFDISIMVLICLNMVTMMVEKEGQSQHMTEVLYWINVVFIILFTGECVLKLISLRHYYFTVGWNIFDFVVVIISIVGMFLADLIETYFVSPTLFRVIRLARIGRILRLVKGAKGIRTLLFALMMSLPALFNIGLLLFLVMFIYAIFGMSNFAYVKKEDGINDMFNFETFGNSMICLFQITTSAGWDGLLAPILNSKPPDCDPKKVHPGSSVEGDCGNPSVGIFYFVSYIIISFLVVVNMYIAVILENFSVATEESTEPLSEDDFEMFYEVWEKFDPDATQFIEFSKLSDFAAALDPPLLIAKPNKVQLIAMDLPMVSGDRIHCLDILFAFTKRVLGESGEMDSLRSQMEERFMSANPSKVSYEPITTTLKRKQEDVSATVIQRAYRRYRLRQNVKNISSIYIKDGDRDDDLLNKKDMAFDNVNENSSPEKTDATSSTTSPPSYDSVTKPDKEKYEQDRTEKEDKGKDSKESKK

Take `CC(=O)Nc1cc(C(=O)NC(C)c2ccc(OCC(F)(F)F)nc2)ccn1` (single isomer, unassigned; (-)) [Example 1, (−)-2-acetamido-N-(1-(6-(2,2,2-trifluoroethoxy)pyridin-3-yl)ethyl)isonicotinamide]: the Ki on human Nav1.7 (hSCN9A) was found to be 1200 nM; on human Nav1.3 (hSCN3A), 1500 nM. Also, the IC50 on human Nav1.3 channels was 2800 nM; on human Nav1.5 channels, greater than 30000 nM.
